Results taken from patent US9732075B2, “Benzimidazole-proline derivatives” (IDORSIA PHARMACEUTICALS LTD, priority 2012, dated 2017).

Tests used:
human orexin-2 receptor = human orexin-2 receptor (Homo sapiens (Human), UniProt O43614); test: In vitro assay: intracellular calcium measurements (FLIPR), antagonistic activity; assay type: cell-based; settings: CHO cells expressing human orexin-2 receptor, orexin-A agonist, geometric mean, read-out: IC50 Ox2
Procedure, shortened: (§1)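 IC50s are geometric means, possibly reference-normalized, from FLIPR calcium peaks in CHO cells bearing human orexin-1 or orexin-2 receptor. Fluo-4 AM/probenecid-loaded cells received antagonist for 120 min before challenge with orexin-A (final 3 nM, ~EC70), with responses compared against vehicle controls.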

human orexin-1 receptor = human orexin-1 receptor (Homo sapiens (Human), UniProt O43613); test: as above; assay type: cell-based; settings: CHO cells expressing human orexin-1 receptor, orexin-A agonist, geometric mean, read-out: IC50 Ox1
Sequence of human orexin-1 receptor (O43613 whole entry): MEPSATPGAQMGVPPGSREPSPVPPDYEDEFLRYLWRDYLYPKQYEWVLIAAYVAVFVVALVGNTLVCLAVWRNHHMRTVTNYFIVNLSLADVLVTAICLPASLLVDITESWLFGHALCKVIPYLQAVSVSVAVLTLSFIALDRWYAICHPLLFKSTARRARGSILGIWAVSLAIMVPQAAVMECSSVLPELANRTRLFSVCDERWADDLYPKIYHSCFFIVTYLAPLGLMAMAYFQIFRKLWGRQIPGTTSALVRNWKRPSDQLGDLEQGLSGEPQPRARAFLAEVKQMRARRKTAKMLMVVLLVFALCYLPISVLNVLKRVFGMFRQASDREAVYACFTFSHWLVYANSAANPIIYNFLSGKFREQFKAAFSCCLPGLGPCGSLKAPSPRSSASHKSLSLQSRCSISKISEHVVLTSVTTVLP
Procedure, shortened: as §1

Sequence of human orexin-2 receptor (O43614 whole entry): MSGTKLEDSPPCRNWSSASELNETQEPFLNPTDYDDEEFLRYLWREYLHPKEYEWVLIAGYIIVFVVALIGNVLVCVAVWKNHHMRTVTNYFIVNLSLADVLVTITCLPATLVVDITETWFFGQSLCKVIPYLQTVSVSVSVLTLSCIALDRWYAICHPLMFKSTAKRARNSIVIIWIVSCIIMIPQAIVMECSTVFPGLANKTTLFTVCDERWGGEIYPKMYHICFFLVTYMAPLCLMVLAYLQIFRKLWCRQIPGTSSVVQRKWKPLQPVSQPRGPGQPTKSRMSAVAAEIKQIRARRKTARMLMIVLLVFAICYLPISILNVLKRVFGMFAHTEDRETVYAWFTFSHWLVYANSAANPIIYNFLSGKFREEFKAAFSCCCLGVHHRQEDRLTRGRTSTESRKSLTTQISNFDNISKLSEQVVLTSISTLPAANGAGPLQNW

Structure (SMILES) | IC50 (human orexin-2 receptor) | IC50 (human orexin-1 receptor)
Cc1ccc(-c2sc(C)nc2C(=O)N2CC[C@H](C)[C@H]2c2nc3c(Cl)cccc3[nH]2)cc1 [Ex. 4.124] | 591 nM | 8 nM
COc1ccc2nc([C@@H]3CCCN3C(=O)c3cnc(C)nc3-c3ccc(C)c(C)c3)[nH]c2c1 [Ex. 1.31] | 78 nM | 195 nM
COc1ccc2nc([C@@H]3CCCN3C(=O)c3cc(OC)c(OC)cc3-n3nccn3)[nH]c2c1 [Ex. 1.162] | 27 nM | 458 nM
Cc1ccc(-n2nccn2)c(C(=O)N2CCC[C@@]2(C)c2nc3c(Br)cccc3[nH]2)c1 [Ex. 5.18] | 84 nM | 23 nM
Cc1c(Cl)ccc2[nH]c([C@]3(C)CCCN3C(=O)c3ccccc3-n3nccn3)nc12 [Ex. 5.46] | 14 nM | 6 nM
CSc1cccc2nc([C@@H]3CCCN3C(=O)c3nccnc3-c3cc(C)cc(F)c3)[nH]c12 [Ex. 1.74] | 100 nM | 52 nM
Cc1c(Cl)ccc2[nH]c([C@]3(C)CCCN3C(=O)c3c(F)cccc3-n3nccn3)nc12 [Ex. 5.48] | 25 nM | 12 nM
COc1cc2nc([C@@H]3[C@@H](C)CCN3C(=O)c3cc(C(F)(F)F)ccc3-n3nccn3)[nH]c2cc1OC [Ex. 4.47] | 281 nM | 176 nM
CSc1ccc2nc([C@@H]3CCCN3C(=O)c3c(F)cccc3-n3nccn3)[nH]c2c1 [Ex. 1.148] | 44 nM | 1170 nM
COc1cccc2nc([C@@H]3CCCN3C(=O)c3nc(C)sc3-c3cccc(Cl)c3)[nH]c12 [Ex. 1.11] | 54 nM | 110 nM
Cc1ccc(-n2cccn2)c(C(=O)N2CCC[C@@]2(C)c2nc3c(C)c(Cl)ccc3[nH]2)n1 [Ex. 5.44] | 29 nM | 8 nM
COc1cc2nc([C@]3(C)CCCN3C(=O)c3cc(OC(F)(F)F)ccc3-n3nccn3)[nH]c2cc1OC [Ex. 5.84] | 76 nM | 138 nM
COc1cc2nc([C@]3(C)CCCN3C(=O)c3nc(C)sc3-c3cc(F)cc(F)c3)[nH]c2cc1OC [Ex. 5.76] | 47 nM | 33 nM

Second part, the molecule after the results:

IC50 (human orexin-2 receptor) | IC50 (human orexin-1 receptor) | Structure (SMILES)
2060 nM | 20 nM | Cc1ccc(-c2nc(C(=O)N3CCC[C@@]3(C)c3nc4c(C)c(Cl)ccc4[nH]3)c(-c3ccc(F)cc3)s2)cc1 [Ex. 5.232]
283 nM | 91 nM | COc1ccccc1-c1ccc(C)cc1C(=O)N1CCC[C@@]1(C)c1nc2cc(C(F)(F)F)ccc2[nH]1 [Ex. 5.185]
10 nM | 75 nM | C=C1C[C@@H](c2nc3ccc(Cl)c(C)c3[nH]2)N(C(=O)c2cc(C)ccc2-n2cccn2)C1 [Ex. 6.134]
9 nM | 3 nM | C=C1CC(c2nc3c(C)c(C)ccc3[nH]2)N(C(=O)c2cc(C)sc2-c2ccc(C)c(C)c2)C1 (centres unmarked) [Ex. 6.77]
2 nM | 12 nM | C=C1C[C@@H](c2nc3c(C)c(Cl)ccc3[nH]2)N(C(=O)c2cc(C)ccc2-n2nccn2)C1 [Ex. 6.42]
6 nM | 317 nM | C=C1C[C@@H](c2nc3cc(OC)ccc3[nH]2)N(C(=O)c2cc(C)ccc2-n2nccn2)C1 [Ex. 6.12]
12 nM | 34 nM | C=C1CN(C(=O)c2cc(C)ccc2-n2nccn2)C(C)(c2nc3cc(OC)ccc3[nH]2)C1 (centres unmarked) [Ex. 6.156]
49 nM | 1750 nM | C=C1C[C@@H](c2nc3cc(OC)ccc3[nH]2)N(C(=O)c2ccccc2-c2nc(C)no2)C1 [Ex. 6.20]
2 nM | 2 nM | C=C1C[C@@H](c2nc3cc(Cl)c(C(F)(F)F)cc3[nH]2)N(C(=O)c2cc(C)c(C)cc2-n2nccn2)C1 [Ex. 6.181]
17 nM | 155 nM | C=C1C[C@@H](c2nc3cc(OC)ccc3[nH]2)N(C(=O)c2ccccc2-n2nccn2)C1 [Ex. 6.13]
33 nM | 142 nM | C=C1C[C@@H](c2nc3c(Br)cccc3[nH]2)N(C(=O)c2cc(C)ccc2-n2nccn2)C1 [Ex. 6.64]
10 nM | 2 nM | Cc1ccc(-n2cccn2)c(C(=O)N2CCC[C@@]2(C)c2nc3cc(C(F)(F)F)c(Cl)cc3[nH]2)c1 [Ex. 5.138]
